The text below walks through data of patent US5593988A, “Therapeutic agent for osteoporosis and diazepine compound” (Yoshitomi Pharmaceutical Industries, Ltd., priority 1991, dated 1997).

One experiment relates to bone resorption (parietal bone). Kind of experiment: Bone resorption-inhibitory activity (45Ca release from newborn mouse parietal bone, hPTH (1-34) stimulated, method of Raisz). In kind it is cell-based, ICR mouse. The conditions noted are these: 5 μM, Table 20, average of four pairs, read-out: bone resorption-inhibitory action, % against control. The text has this: The method for determining the bone resorption-inhibitory activity of the Compound (I) and the results are shown in the following.
Bone resorption-inhibitory activity
The determination of the bone resorption-inhibitory activity basically followed the method of Raisz [J. Clin. Invest., vol. 44, pp. 103-116 (1965)].
A 1-2 days old new born ICR mouse was intraperitoneally administered with 1.5μ Ci ^45 Ca (CaCl2 solution of isotope of calcium) and parietal bone was asceptically removed the next day. The parietal bone was split into two along the central sature line and one of them was used as a control and the other was used for the experiment. The bone was preincubated in 0.5 ml of a BGJb medium (Fitton-Jackson modification, GIBCO Laboratories, U.S.A.) added with the test compound to a concentration of 5 μM or 20 μM and bovine serum albumin (1 mg/ml) at 37° C. for 2 days, and further incubated in the aforementioned medium containing 50 nM hPTH (1-34) for 3 days. After the incubation, the radioactivity of ^45 Ca in the medium and in the bone was measured and the ratio (%) of ^45 Ca released from the bone into the medium was calculated. [formula]
Using the bone obtained from the same mouse and treated in the same manner without the test compound as a control, the ratio (%) against the control was calculated according to the following equation. [formula]
The average of these values obtained from four pairs from each group was calculated.
`CCc1cc2c(s1)-n1c(C)nnc1C(NC(=O)Nc1ccccc1OC)N=C2c1ccc(Cl)cc1` (centres unmarked) [compound 90]: the inhibition at 5 µM turned out to be 34.2%.

Take `CCc1cc2c(s1)-n1c(C)nnc1C(NC(=O)Nc1ccc(Cl)cc1)N=C2c1ccc(Cl)cc1` (centres unmarked) [compound 75]: the inhibition at 5 µM was found to be 47.7%.

As to `CCc1cc2c(s1)-n1c(C)nnc1C(NC(=O)Nc1cccc(OC)c1)N=C2c1ccc(Cl)cc1` (centres unmarked) [compound 76], the inhibition at 5 µM was 29.5%.

Take `CCc1cc2c(s1)-n1c(C)nnc1C(NC(=O)Nc1cccc(C)c1)N=C2c1ccccc1` (centres unmarked) [compound 88]: the inhibition at 5 µM was found to be 33.8%.

Still in this experiment, the particulars now being: 20 μM, Table 20, average of four pairs, read-out: bone resorption-inhibitory action, % against control.
Turning to `Cc1nnc2n1-c1sc(CCc3ccc(CC(C)C)cc3)cc1C(c1ccccc1Cl)=NC2CC(C)C` (centres unmarked) [compound 43], the inhibition at 20 µM is 21.2%.

On to `CCc1cc2c(s1)-n1c(C)nnc1C(NC(=O)c1cc3ccccc3[nH]1)N=C2c1ccccc1Cl` (centres unmarked) [compound 48], for which the inhibition at 20 µM was 25.7%.

Regarding `CCCCCCCc1nnc2n1-c1sc(CC)cc1C(c1ccc(OC)cc1)OC2` (centres unmarked) [compound 348], the inhibition at 20 µM came out at 30.3%.

Turning to `CCc1cc2c(s1)-n1c(C)nnc1C(CC(=O)Nc1ccccc1OC)N=C2c1ccc(Cl)cc1` (centres unmarked) [compound 250], the inhibition at 20 µM worked out at 27.3%. Same read-out and setting: to `CCCN(CCC)C(=O)C1Cc2sc3c(c2C1)C(c1ccccc1Cl)=NCc1nnc(C)n1-3` (centres unmarked) [compound 53] belongs 73.5%; to `CCCCCCCCCCCc1nnc2n1-c1sc3c(c1C(c1ccccc1Cl)OC2)CCCC3` (centres unmarked) [compound 307], 42.4%.

The experiment is the same for the next values; noted with them: 20 μM, Table 21, average of four pairs, read-out: bone resorption-inhibitory action, % against control.
`CCCCCCCCCCCc1nnc2n1-c1ccccc1C(c1ccc(Cl)cc1)NC2` (centres unmarked) [compound 515]: the inhibition at 20 µM turned out to be 29.9%.

Still in this experiment, the particulars now being: Table 20, read-out: IC50 (figures in parentheses), bone resorption-inhibitory action.
For `CCc1cc2c(s1)-n1c(C)nnc1C(NC(=O)Nc1ccccc1OC)N=C2c1ccc(Cl)cc1` (centres unmarked) [compound 90], the IC50 (as a rule, the point on the concentration scale where inhibition reaches its midpoint) is 250 nM.

Still in this experiment, the particulars now being: read-out: IC50 (figures in parentheses), bone resorption-inhibitory action.
`COc1ccccc1NC(=O)NC1N=C(c2ccccc2)c2cc(Cl)ccc2-n2c(C)nnc21` (centres unmarked) [compound 532]: the IC50 was determined as 930 nM.

The experiment is the same for the next values; noted with them: read-out: bone resorption-inhibitory action, % against control.
With `Cc1cccc(NC(=O)OCC2N=C(c3ccccc3)c3ccccc3-n3c(C)nnc32)c1` (centres unmarked) [compound 510], the inhibition at 20 µM amounted to 28.3%. Still for that read-out and setting: to `COc1ccccc1NC(=O)NCC1N=C(c2ccc(Cl)cc2)c2ccccc2-n2c(C)nnc21` (centres unmarked) [compound 505] belongs 53.5%; to `Cc1nnc2n1-c1ccccc1C(c1ccc(Cl)cc1)=NC2NC(=O)NC(=O)c1ccccc1` (centres unmarked) [compound 525], 26.8%. Take `Cc1nnc2n1-c1sc3c(c1C(c1ccccc1Cl)=N[C@H]2C)CCN(C(=O)C1CC1)C3` [compound 52]: the inhibition at 20 µM turned out to be 29.9%.

Turning to `Cc1nnc2n1-c1ccccc1C(c1ccc(Cl)cc1)=NC2NC(=O)Nc1ccccn1` (centres unmarked) [compound 522], the inhibition at 20 µM was determined as 32.8%.

`CCc1cc2c(s1)-n1c(C)nnc1C(OC(=O)Nc1cccc(C)c1)N=C2c1ccc(OC)cc1` (centres unmarked) [compound 257]: the inhibition at 20 µM amounted to 27.1%. Still for that read-out and setting: to `CCCCCCc1cc2c(s1)NC(=O)CN=C2c1ccccc1Cl` [compound 60] belongs 58.6%. Same read-out and setting: under `CCCCCCCCCCc1ccc2c(c1)C(c1ccccc1)=NC(C)c1nnc(C)n1-2` (centres unmarked) [compound 519] stands 21.1%.

Regarding `Cc1cccc(NC(=O)NC2N=C(c3cccs3)c3ccccc3-n3c(C)nnc32)c1` (centres unmarked) [compound 521], the inhibition at 20 µM was found to be 29.6%.

As to `Cc1nnc2n1-c1ccccc1C(c1ccc(Cl)cc1)=NC2Cc1c[nH]c2ccccc12` (centres unmarked) [compound 508], the inhibition at 20 µM worked out at 48.1%. The same measure, in the same setting: under `COc1ccccc1NC(=O)NC1N=C(c2ccccc2)c2cc(Cl)ccc2-n2c(C)nnc21` (centres unmarked) [compound 532] stands 28.1%. The same measure, in the same setting: under `CC(C)Cc1ccc(CCc2nnc3n2-c2ccccc2C(c2ccc(Cl)cc2)=NC3)cc1` [compound 517] stands 47.3%; under `Cc1nnc2n1-c1sc(CCc3ccc(CC(C)C)cc3)cc1C(c1cccc(Cl)c1)=NC2` [compound 5], 26.7%.
